From PubChem BioAssay AID179 (DTP/NCI, 2004) come the findings set out here.

Calls of active or inactive are those of the source.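 The calls were made as follows: active = compounds giving half or more protection of infected cells from virus-caused growth loss, again on retest; inactive = the rest.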

In this experiment the test system is CEM cells HIV-1 protection, formazan growth assay. The experiment can be described thus: NCI AIDS Antiviral Assay. To be noted: for IC50: measured here: growth of uninfected CEM cells. The procedure, abridged: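 Soluble formazan readout of cell growth; CEM cells ± HIV-1; 5 drug concs. ≥50% protection → retest; ≥50% again = moderately active; reproducible 100% = confirmed active.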

Usually EC50 stands for the concentration giving half of the maximal effect. One may read the IC50 as the concentration that gives 50% inhibition. Low readings indicate greater potency, high ones weaker potency. On to `CCCCCCCCCCCCCCCCOC1OC(CCSSC2OC(OCCCCCCCCCCCCCCCC)C(O)C(O)C2O)C(O)C(O)C1O` (stereo not given), for which the EC50 was more than 3.24 µM and the IC50 is more than 3.24 µM.
In the case of `COc1ccc(C=O)cc1Oc1ccc(C[C@H]2c3c(cc(OC)c4c3Oc3cc5c(cc3O4)CCN(C)C5=O)CCN2C)cc1`, the EC50 was more than 200 µM and the IC50 worked out at 9.77 µM.
The matching figures for `NC1C2C(CC(=O)O)OCC=C3CN4CCC1(C(=O)C(=O)O)C4CC32` (stereo not given): more than 28.8 µM and more than 28.8 µM.
The matching figures for `NC(=O)c1ccc2c(c1)S(=O)(=O)c1ccccc1C2=O`: more than 200 µM and more than 200 µM.
Regarding `Cc1cc(=O)[nH]c(NNC(C#N)c2cccc(O)c2)n1` (stereo not given), the EC50 is more than 347 µM and the IC50 is 123 µM.
Turning to `O=C(NC(C(F)(F)F)(C(F)(F)F)P(=O)(Cc1ccccc1)Cc1ccccc1)C(C(F)(F)F)C(F)(F)F`, the result was inactive.
Regarding `CCOC(=O)CC(=O)CSc1c(-c2ccccc2)c(=O)n(-c2ccccc2)c(=S)n1-c1ccccc1`, the EC50 is more than 200 µM and the IC50 worked out at 72.4 µM.
`O=S(=O)(O)NCC1OC2OC3C(CNS(=O)(=O)O)OC(OC4C(CNS(=O)(=O)O)OC(OC5C(CNS(=O)(=O)O)OC(OC6C(CNS(=O)(=O)O)OC(OC7C(CNS(=O)(=O)O)OC(OC8C(CNS(=O)(=O)O)OC(OC1C(OS(=O)(=O)O)C2OS(=O)(=O)O)C(OS(=O)(=O)O)C8OS(=O)(=O)O)C(OS(=O)(=O)O)C7OS(=O)(=O)O)C(OS(=O)(=O)O)C6OS(=O)(=O)O)C(OS(=O)(=O)O)C5OS(=O)(=O)O)C(OS(=O)(=O)O)C4OS(=O)(=O)O)C(OS(=O)(=O)O)C3OS(=O)(=O)O` (stereo not given): the EC50 is more than 50.1 µM and the IC50 is more than 50.1 µM.
In the case of `NC(=O)NNc1nc(-c2ccccc2)cs1`, the EC50 is more than 200 µM and the IC50 worked out at 87.1 µM.
For the compound `O=C(O)c1cc2sc(C(=O)O)cc2s1`, the result was inactive.
Take `O=C(O)CN1CCN(CC(=O)O)CCN(CC(=O)O)CC1`: the EC50 is more than 100 µM and the IC50 was determined as 1.82 µM.
The matching figures for `COCn1c(C(=O)c2ccccc2)c(C)c(=O)[nH]c1=O`: 70.8 µM and more than 200 µM.
For `CCC1=C(C(C)=O)[C@@H]2CCCCC(C(=O)OC)[C@@H]2C1=O` (stereo not given in full), in that order: more than 200 µM and more than 200 µM.
Take `CC1=NN(c2ccccc2)C(=O)C1C(=O)C(=O)Nc1ccc(C)cc1C` (stereo not given): the result was inactive and the IC50 came out at 102 µM.
Take `CN1C2CCCC1CC(=O)NC2` (stereo not given): the EC50 is more than 1480 µM and the IC50 was more than 1480 µM.
Consider `CC(=O)CCNc1ccc(-c2cc(-c3ccc(N(C)C)cc3)nc3ccc4ccccc4c23)cc1`, for which the EC50 was more than 200 µM and the IC50 was found to be 102 µM.
Regarding `COc1ccc2c(c1OC)C(=O)O[C@@H]2C1c2cc3c(cc2CCN1C)OCO3` (stereo not given in full), the EC50 is more than 245 µM and the IC50 is more than 245 µM.
Consider `Oc1ccc(-c2csc(NNC3=NC/C(=C/c4ccc5c(c4)OCO5)S3)n2)cc1O`, for which the EC50 is more than 200 µM and the IC50 stood at 64.6 µM.
For the compound `COC(=O)/C=c1\sc2n(c1=O)CCCCN=2`, the EC50 was more than 417 µM and the IC50 is 240 µM.
Turning to `Clc1ccc(/C(=C/c2ccccc2)Cn2ccnc2)cc1`, the EC50 is more than 200 µM and the IC50 was found to be 35.5 µM.
For `Cc1ccc2[nH]c3nc4cc(C)c(C)cc4nc3c2c1`, in that order: more than 7.24 µM and more than 7.24 µM.
As for `CN(COC(=O)c1ccccc1)c1nc(N(C)COC(=O)c2ccccc2)nc(N(C)COC(=O)c2ccccc2)n1`, the outcome was inactive.
For `Cn1nc(-c2cccc(-c3nn(C)c(=NCCO)s3)n2)sc1=NCCO`, the EC50 is more than 200 µM and the IC50 is more than 200 µM.
With `COc1ccc2nc3cc(Cl)ccc3c(NCCNCCCNC(=O)c3cc(-c4ccccc4)nc4ccccc34)c2c1`, the EC50 was more than 20 µM and the IC50 is 1.12 µM.
The matching figures for `N#CC(/C(=N\NC(=O)c1ccncc1)C(=O)Nc1ccc([N+](=O)[O-])cc1[N+](=O)[O-])c1nc(-c2ccc(Br)cc2)cs1` (stereo not given): more than 389 µM and more than 389 µM.
For `COC(=O)CC(SCCO)SCCO`, in that order: more than 200 µM and more than 200 µM.
As to `CC(C)[Si](OC1=C(C(=O)N(C)c2cccc(Cl)c2)CCCC1)(C(C)C)C(C)C`, the EC50 was more than 200 µM and the IC50 was found to be 9.77 µM.
On to `COc1ccc(-c2c(C(C)=O)c(-c3ccccc3)n(C3OC(COC(C)=O)C(OC(C)=O)C(OC(C)=O)C3OC(C)=O)c(=S)c2C#N)cc1` (stereo not given), for which the EC50 was more than 200 µM and the IC50 was found to be 123 µM.
As to `O=c1oc2ccccc2c(O)c1C(c1cnc2ccccc2c1)c1c(O)c2ccccc2oc1=O`, the result was inactive.
In the case of `CC(=O)Nc1ccc(NS(=O)(=O)c2ccc3nc(C)n(NS(=O)(=O)c4ccc(NC(C)=O)cc4)c(=O)c3c2)cc1`, the EC50 is more than 200 µM and the IC50 was more than 200 µM.
Take `NC(=S)NNC(=O)CCC(=O)Nc1ccccc1Cl`: the outcome was inactive.
With `O=C(NNS(=O)(=O)c1ccccc1)c1csc(NC(=S)NC2CCCCC2)n1`, the EC50 was more than 72.4 µM and the IC50 was 28.8 µM.
`C[N+]1(Cc2ccc([N+](=O)[O-])cc2)CCC(CCCCCCCC2CC[N+](C)(Cc3ccc([N+](=O)[O-])cc3)CC2)CC1` (stereo not given): the EC50 is more than 200 µM and the IC50 came to 14.5 µM.
The matching figures for `C=C1C(=O)O[C@H]2C1C[C@@H](O)[C@@]1(C)OC1CC[C@@]1(C)O[C@H]21` (stereo not given in full): more than 200 µM and 4.47 µM.
For the compound `CCN1c2ccccc2-c2c3c1cc(C)cc3c1ccccc1[n+]2CC`, the outcome was inactive.
The same measure, in the same setting: the result for `Cn1c(=O)c2c(=O)cc(N)[nH]c2n(C)c1=O` reads “inactive”.
As for `Cn1c2ccccc2c2nnc(N/N=C/c3cccs3)nc21`, the EC50 is more than 200 µM and the IC50 was more than 200 µM.
On to `Cc1cc2c(C(C)C)c(O)c(O)c(C=NC(C)c3ccccc3)c2c(O)c1-c1c(C)cc2c(C(C)C)c(O)c(O)c(C=NC(C)c3ccccc3)c2c1O` (stereo not given), for which the EC50 was more than 7.24 µM, the outcome was inactive and the IC50 was more than 7.24 µM.
Take `S=C(c1c[nH]c2ccccc12)N1CCN(Cc2ccccc2)CC1`: the EC50 was more than 200 µM and the IC50 came out at 37.2 µM.
Take `Nc1ccc2c(c1)C(=O)N(OS(=O)(=O)c1ccccc1)C2=O`: the outcome was inactive.
Consider `COC(=O)C1C23CC(=O)CC1(c1ccc4c(c1)OCO4)C2NC3=O` (stereo not given), for which the EC50 is more than 398 µM and the IC50 is more than 398 µM.
Regarding `COc1ccc(SS(=O)(=O)c2ccc(OC)cc2)cc1`, the EC50 was more than 56.2 µM and the IC50 was 5.25 µM.
With `CN1c2ccccc2Oc2ccc3ccccc3c21`, the EC50 is more than 200 µM and the IC50 amounted to 135 µM.
For the compound `CN(c1ccc(Cl)cc1)S(=O)(=O)c1ccc([N+](=O)[O-])cc1`, the EC50 is more than 200 µM and the IC50 is more than 200 µM.
`O=c1[nH]cnc2c1ncn2C1SC(CO)C(O)C1O` (stereo not given): the EC50 is more than 200 µM and the IC50 worked out at 117 µM.
`Cc1ccc(-c2n[nH]c(=O)n2N2C(=O)C=CC2=O)cc1`: the EC50 is 49 µM and the IC50 is 501 µM.
`CC(C)=CCC/C(C)=C/CCC(C(=O)COCc1ccccc1)P1(=O)OC(C)(C)CN1C(C)(C)C` (stereo not given): the EC50 was more than 200 µM and the IC50 was 61.7 µM.
The matching figures for `C/C=C/C(=O)N1C(=O)OC[C@@H]1c1ccccc1`: more than 200 µM and 6.92 µM.
For the compound `C/C(=N\NC(=S)NC(C)(C)C)c1ccccn1`, the EC50 is more than 200 µM and the IC50 stood at 0.0631 µM.
As to `COc1ccc(/C=N/NS(=O)(=O)c2ccc(/C=C3\NC(=O)N(C)C3=O)cc2)cc1`, the EC50 was more than 200 µM and the IC50 is more than 200 µM.
`COc1ccc2c(c1)OC(OC)(c1ccccc1)C(O)(OC)C2=O` (stereo not given): the EC50 is more than 200 µM and the IC50 came to 15.1 µM.
The matching figures for `Clc1ccc(NC2=NCCN=C(Nc3ccc(Cl)cc3)SS2)cc1`: more than 200 µM and 22.9 µM.
Take `c1ccc(-c2nnc(-c3ccccn3)c3c2C[C@@H]2C[C@@H]4Cc5c(-c6ccccn6)nnc(-c6ccccn6)c5[C@@H]4[C@H]32)nc1`: the EC50 was more than 200 µM and the IC50 was more than 200 µM.
For the compound `CC(=O)OCC1OC(N2C(=O)NC(=O)C3C=C4CCCCC4=CC32)CC1OC(C)=O` (stereo not given), the EC50 is more than 200 µM and the IC50 is 117 µM.
Take `COc1ccc(C(c2ccc(C(C)C)cc(=O)c2O)c2c(O)cc3oc(-c4ccccc4)cc(=O)c3c2O)cc1` (stereo not given): the result was inactive.
Turning to `N=C1OC(CN2CCN(c3ccccc3)CC2)CN1C(=O)Nc1ccccc1` (stereo not given), the EC50 is more than 200 µM and the IC50 is more than 200 µM.
With `Cn1c(N)cc[n+](C2CCC(CO)O2)c1=O` (stereo not given) (tested in a mixture with another compound), the EC50 was 9.12 µM and the IC50 is 708 µM.
In the case of `CO[C@H]1C[C@H](O[C@H]2CC[C@]3(C=O)[C@H]4CC[C@]5(C)[C@@H](C6=CC(=O)OC6)CC[C@]5(O)[C@@H]4CC[C@]3(O)C2)O[C@H](C)[C@H]1O`, the outcome was inactive.
On to `C=C1C(=O)C23OC2C1CCC(=O)C1(C)CC[C@H](OC(C)=O)C(C)(C)[C@H]1CC3=O` (stereo not given in full), for which the EC50 was more than 174 µM and the IC50 was found to be 2.29 µM.
The matching figures for `O=C(CC(=O)N1N=C(n2ccc3ccccc32)CC1c1ccccc1)Nc1ccc(Cl)cc1` (stereo not given): more than 1.2 µM and more than 1.2 µM.
For the compound `Cc1c2n(c(=O)[nH]c1=O)C1OC(CO)C(O2)C1O` (stereo not given), the EC50 is more than 200 µM and the IC50 was more than 200 µM.
As to `O=C(CCC(=O)OCC1OC(O)(CC2OC(CO)C(O)C(O)C2O)C(O)C1O)OCc1ccccc1` (stereo not given), the EC50 was more than 200 µM and the IC50 is more than 200 µM.
Consider `O=C(Nc1ccc2oc3ccc(Cl)cc3c(=O)c2c1)c1ccc(Cl)cc1Cl`, for which the EC50 is more than 12.3 µM and the IC50 is more than 12.3 µM.
`COc1ccc(C2SCC(=O)N2N=C2NC(=O)CC(=O)N2)cc1` (stereo not given): the EC50 is more than 200 µM and the IC50 was more than 200 µM.
Take `Nc1c(S(=O)(=O)O)cc2cc(S(=O)(=O)O)ccc2c1N=Nc1ccc(-c2ccc(N=Nc3c(N)c(S(=O)(=O)O)cc4cc(S(=O)(=O)O)ccc34)c(S(=O)(=O)O)c2)cc1`: the result was active.
